22 compounds from patent publication US5578620A, “Thiazolidine and oxazolidine derivatives, their preparation and their medical use” (Sankyo Company, Limited, priority 1994, dated 1996) can be followed below.

Data set [1] deals with blood glucose level (BGL). Briefly: Hypoglycemic activity (blood glucose lowering rate) in hyperglycemic KK mice. In kind it is in vivo, male mice of the KK strain. As to conditions: Mus musculus, oral, 18 hours. How it is done:
The test animals used were hyperglycemic male mice of the KK strain, each having a body weight more than 40 g. Each animal was orally administered a test compound in the amount shown in the following Table 8 and then allowed to feed freely for 18 hours. At the end of this time, blood was collected from the tail veins without anesthesia. The blood glucose level (BGL) was determined by means of a glucose analyzer (GL-101, manufactured by Mitsubishi Kasei Co. or Glucoroder manufactured by Shino Test Co.).
The blood glucose lowering rate was calculated by the following equation:
Blood glucose lowering rate (%)=
BGLs is the BGL in the group administered a solvent only, but no active compound; and
BGLt is the BGL in the group administered a test compound.
The results are shown in the following Table 8, in which each compound of the present invention is identified by the number of one of the following Examples in which its preparation is illustrated.

Data set [2] concerns the target T1, Bovine lens aldose reductase (Bos taurus, UniProt P16116).
T1 construct: Bovine lens aldose reductase was separated and partially purified; from tissue; host or cells: bovine lens
Briefly: Inhibition of Aldose reductase. As to conditions: for inhibition at 5 µg/mL: read-out: Inhibition at 5 μg/ml. It is filed as biochemical. How it is done:
Bovine lens aldose reductase was separated and partially purified by the method of S. Hyman and J. H. Kinoshita [J. Biol. Chem., 240, 877 (1965)] and K. Inagaki, I. Miwa and J. Okuda [Arch. Biochem. Biophys., 316, 337 (1982)], and its activity was determined photometrically by the method of Varma et al. [Biochem. Pharmac., 25, 2505 (1976)]. […]

A short description of data set [3]: Toxicity, oral administration for 2 weeks. The conditions noted are these: 50 mg/kg; for mortality rate: male F344 rats, oral, 2 weeks. It is filed as in vivo, male F344 rats. How it is done:
The toxicity of the compounds of the present invention was tested on male F344 rats, divided into groups of 5. The test compound was adminstered orally to each test animal at a dose of 50 mg/kg of body weight for 2 weeks. The test compounds used were those of Examples 20, 45 (polar, less polar) and 47 (polar).

Structures are written as SMILES.

Turning to `C[C@@H](COc1ccc(CC2SC(=O)NC2=O)cc1)N1C[C@@H](COc2cccc(Cl)c2)OC1=O` (stereo partly drawn) [Example 13, 5-[4-{2(S)-[5(S)-(3-Chlorophenoxymethyl)-2-oxooxazolidin-3-yl]propoxy}benzyl]thiazolidine-2,4-dione], in data set [1], testing at 1 mg/kg gave an inhibition in vivo of 29.9%.

As for `CCC(COc1ccc(CC2SC(=O)NC2=O)cc1)N1CC(COc2cccc(Cl)c2)OC1=O` (stereo not shown) [47 (polar), 5-{4-[2-(5-3'-Chlorophenoxymethyl-2-oxooxazolidin-3-yl)butoxy]benzyl}thiazolidine-2,4-dione], the inhibition in vivo at 1 mg/kg in data set [1] was determined as 34.7%. For the same compound, in data set [2], the IC50 was 0.455 µM and the inhibition at 5 µg/mL was determined as 86.6%. Besides, the mortality rate result in data set [3] was “zero”. Also, the “abnormalities observed during 2 successive weeks” value in data set [3] (rat, in vivo, po) is reported as “no abnormalities which could be attributed to the test coumpounds”.

In data set [1], `CC(COc1ccc(CC2SC(=O)NC2=O)cc1)NCC(O)COCCc1ccccc1` (stereo not shown) [Example 18, 5-{4-[2'-(3-2'-phenylethoxy-2-hydroxypropylamino)propoxy]benzyl}thiozolidine-2,4-dione] showed an inhibition in vivo at 1 mg/kg of 10.5%.

Regarding `CC(COc1ccc(CC2SC(=O)NC2=O)cc1)N1CC(COc2ccc(-c3ccccc3)cc2)OC1=O` (stereo not shown) [Example 35, 5-{4-[2-(5-4'-Phenylphenoxymethyl-2-oxooxazolidin-3-yl)propoxy]benzyl}thiazolidine-2,4-dione], testing at 1 mg/kg in data set [1] gave an inhibition in vivo of 13.5%.

In the case of `CC(COc1ccc(CC2SC(=O)NC2=O)cc1)NCC(O)COCCCCc1ccccc1` (stereo not shown) [Example 19, 5-{4-[2-(3-4'-Phenylbutoxy-2-hydroxypropylamino)propoxy]benzyl}thiazolidine-2,4-dione], in data set [1], the inhibition in vivo at 1 mg/kg came to 15.8%. Moreover, in data set [2], 8.01 µM corresponded to half-maximal inhibition (IC50) and the inhibition at 5 µg/mL was 56.1%.

In data set [1], `CC(COc1ccc(CC2SC(=O)NC2=O)cc1)NCC(O)COCc1ccccc1` (stereo not shown) [Example 15, 5-{4-[2-(3-Benzyloxy-2-hydroxypropylamino)propoxy]benzyl}thiazolidine-2,4-dione] registered an inhibition in vivo at 1 mg/kg of 19.1%.

`C[C@H](COc1ccc(CC2SC(=O)NC2=O)cc1)N1C[C@@H](COc2cccc(Cl)c2)OC1=O` (stereo partly drawn) [Example 11, 5-[4-{2(R)-[5(S)-(3-Chlorophenoxymethyl)-2-oxooxazolidin-3-yl]propoxy}benzyl]thiazolidine-2,4-dione]: the inhibition in vivo at 1 mg/kg in data set [1] came to 24.3%.

`CC(COc1ccc(CC2SC(=O)NC2=O)cc1)N1CC(COc2cccc(Cl)c2)OC1=S` (stereo not shown) [45 (polar), 5-{4-[2-(5-3'-Chlorophenoxymethyl-2-thioxooxazolidin-3-yl)propoxy]benzyl}thiazolidine-2,4-dione] showed an inhibition in vivo at 1 mg/kg in data set [1] of 23.9%. The mortality rate result in data set [3] is given as “zero”. The “abnormalities observed during 2 successive weeks” value in data set [3] (rat, in vivo, po) is reported as “no abnormalities which could be attributed to the test coumpounds”.

With `CC(COc1ccc(CC2SC(=O)NC2=O)cc1)N1CC(COCCCCCCCCc2ccccc2)OC1=O` (stereo not shown) [Example 28, 5-{4-[2-(5-8'-Phenyloctyloxymethyl-2-oxooxazolidin-3-yl)propoxy]benzyl}thiazolidine-2,4-dione], the inhibition in vivo at 1 mg/kg in data set [1] worked out at 13.6%.

In data set [1], `CC(COc1ccc(CC2SC(=O)NC2=O)cc1)N1CC(COc2cccc(Cl)c2)OC1=S` (single isomer, unassigned) [Example 45 (less polar), 5-{4-[2-(5-3'-Chlorophenoxymethyl-2-thioxooxazolidin-3-yl)propoxy]benzyl}thiazolidine-2,4-dione] came in with an inhibition in vivo at 1 mg/kg of 27.2%. Also, the mortality rate entry in data set [3] is given as “zero”. Further, in data set [3] (rat, in vivo, po), the “abnormalities observed during 2 successive weeks” value is on record as “no abnormalities which could be attributed to the test coumpounds” and the “hematological examinations (red blood cell counts)” value was “slighly decrease in red blood cell counts”.

`CC(COc1ccc(CC2SC(=O)NC2=O)cc1)NCC(O)COCCCCCCc1ccccc1` (stereo not shown) [Example 20, 5-{4-[2-(3-6'-Phenylhexyloxy-2-hydroxypropylamino)propoxy]benzyl}thiazolidine-2,4-dione] gave an inhibition in vivo at 1 mg/kg in data set [1] of 37.9%. In data set [2], the IC50 is 3.5 µM and the inhibition at 5 µg/mL was 69.1%. Moreover, the mortality rate entry in data set [3] is “zero”. The “abnormalities observed during 2 successive weeks” value in data set [3] (rat, in vivo, po) is “no abnormalities which could be attributed to the test coumpounds”.

`CC(COc1ccc(CC2SC(=O)NC2=O)cc1)N1CC(COCCCCCCCc2ccccc2)OC1=O` (stereo not shown) [Example 29, 5-{4-[2-(5-7'-Phenylheptyloxymethyl-2-oxooxazolidin-3-yl)propoxy]benzyl}thiazolidine-2,4-dione] registered an inhibition in vivo at 1 mg/kg in data set [1] of 18.1%.

`CC(COc1ccc(CC2SC(=O)NC2=O)cc1)N1CC(COc2ccc(-c3ccccc3)cc2)OC1=S` (stereo not shown) [36 (polar), 5-{4-[2-(5-4'-Phenylphenoxymethyl-2-thioxooxazolidin-3-yl)propoxy]benzyl}thiazolidine-2,4-dione] gave an inhibition in vivo at 1 mg/kg in data set [1] of 13.7%.

Turning to `CC(COc1ccc(CC2SC(=O)NC2=O)cc1)N1CC(COc2cccc(Cl)c2)OC1=O` (stereo not shown) [Example 1, 5-{4-[2-(5-3'-Chlorophenoxymethyl-2-oxooxazolidin-3-yl)propoxy]benzyl}thiazolidine-2,4-dione], the inhibition in vivo at 1 mg/kg in data set [1] turned out to be 28.5%. In data set [2], the IC50 was 0.224 µM and the inhibition at 5 µg/mL came to 89.6%.

The compound `CC(COc1ccc(CC2SC(=O)NC2=O)cc1)N1CC(COCc2ccccc2)OC1=O` (stereo not shown) [Example 22, 5-{4-[2-(5-Benzyloxymethyl-2-oxooxazolidin-3-yl)propoxy]benzyl}thiazolidine-2,4-dione] had an inhibition in vivo at 1 mg/kg in data set [1] of 14.3%. Further, in data set [2], 3.61 µM corresponded to half-maximal inhibition (IC50) and the inhibition at 5 µg/mL turned out to be 70.1%.

On to `CCCC(COc1ccc(CC2SC(=O)NC2=O)cc1)N1CC(COc2cccc(Cl)c2)OC1=O` (single isomer, unassigned) [Example 50 (less polar), 5-{4-[2-(5-3'-Chlorophenoxymethyl-2-oxooxazolidin-3-yl)pentyloxy]benzyl}thiazolidine-2,4-dione], for which the inhibition in vivo at 1 mg/kg in data set [1] came out at 17.5%.

In data set [1], `COc1ccc(OCC2CN(C(C)COc3ccc(CC4SC(=O)NC4=O)cc3)C(=O)O2)cc1` (single isomer, unassigned) [31 (less polar), 5-{4-[2-(5-4'-Methoxyphenoxymethyl-2-oxooxazolidin-3-yl)propoxy]benzyl}thiazolidine-2,4-dione] registered an inhibition in vivo at 1 mg/kg of 21.6%. Besides, in data set [2], the IC50 was 3.91 µM and the inhibition at 5 µg/mL worked out at 67.8%.

Compound `O=C1NC(=O)C(Cc2ccc(OCCN3CC(COc4cccc(Cl)c4)OC3=O)cc2)S1` (stereo not shown) [Example 6, 5-{4-[2-(5-3'-Chlorophenoxymethyl-2-oxooxazolidin-3-yl)ethoxy]benzyl}thiazolidine-2,4-dione] had an inhibition in vivo at 1 mg/kg in data set [1] of 19.2%.

In the case of `CC(COc1ccc(CC2SC(=O)NC2=O)cc1)NCC(O)COCc1cccc(Cl)c1` (stereo not shown) [Example 41, 5-{4-[2-(3-3'-Chlorobenzyloxy-2-hydroxypropylamino)propoxy]benzyl}thiazolidine-2,4-dione], the inhibition in vivo at 1 mg/kg in data set [1] worked out at 18.2%. Also, in data set [2], 6.68 µM corresponded to half-maximal inhibition (IC50) and the inhibition at 5 µg/mL was determined as 57.4%.

For `CC(C)C(COc1ccc(CC2SC(=O)NC2=O)cc1)N1CC(COc2cccc(Cl)c2)OC1=O` (stereo not shown) [51 (polar), 5-{4-[2-(5-3'-Chlorophenoxymethyl-2-oxooxazolidin-3-yl)-3-methylbutoxy]benzyl}thiazolidine-2,4-dione], testing at 1 mg/kg in data set [1] gave an inhibition in vivo of 20.8%.

In data set [1], `CC(COc1ccc(CC2SC(=O)NC2=O)cc1)NCC(O)Cc1ccccc1` (stereo not shown) [Example 7, 5-{4-[2-(3-Phenyl-2-hydroxypropylamino)propoxy]benzyl}thiazolidine-2,4-dione] showed an inhibition in vivo at 1 mg/kg of 36.3%.

Consider `CC(COc1ccc(CC2SC(=O)NC2=O)cc1)N1CC(Cc2ccccc2)OC1=O` (stereo not shown) [Example 8, 5-{4-[2-(5-Benzyl-2-oxooxazolidin-3-yl)propoxy]benzyl}thiazolidine-2,4-dione], for which, in data set [2], the IC50 is 4.99 µM and the inhibition at 5 µg/mL is 67.2%.
